These results are taken from paper PMC13223435, “Synthesis and Antiproliferative Activity against Melanoma Cells of New Heterocyclic Hybrids Based on Pyridine and Pyrimidine Scaffolds” (Current Medicinal Chemistry, 2025).

For one experiment, the target named is T1, tubulin (Sus scrofa, UniProt P02550+P02554).
T1 construct: purchased Cytoskeleton, Denver, CO, USA
As to the kind of experiment: Cell free tubulin polymerization assay (fluorescence-based). The format is biochemical. On the procedure: The tubulin polymerization process was evaluated using a tubulin (>99% pure) and fluorescence-based tubulin polymerization kit (Cytoskeleton, Denver, CO, USA). The effects of compounds 16b and 29 (at final concentrations of 1, 10, 50, 100 µM) on tubulin polymerization were evaluated in cell-free conditions. Paclitaxel (PTX) and vinblastine (VBL) (3 µM) were used as references, and DMSO (0.2%) was used as the vehicle control. This assay tracks the process of tubulin polymerization through an increase in fluorescence resulting from the addition of a fluorescence reporter to microtubules as polymerization occurs. After incubating the tested compounds at 37°C for 1 minute, the icy tubulin reaction mixture (2 mg/mL tubulin, 1.0 mM GTP, 15% glycerol in buffer containing 80 mM PIPES, 2.0 mM MgCl2, 0.5 mM EGTA, pH 6.9, and 10 µM fluorescent reporter) was added to the samples, which were then mixed and monitored using a spectrophotometric microplate reader (Infinite 200 Pro, Tecan) at 1-minute intervals for 90 minutes at 37°C (excitation: 360 nm, emission: 450 nm). The software installed on the plate reader was used to compute the maximum slope (Vmax) of the growth phase, measured in RFU/min, as outlined in the manufacturer's instructions. Each polymerization curve's Vmax was then standardized against the control curve's Vmax. The IC50 values were determined using an online tool (AAT Bioquest, Inc., Quest Graph™ IC50 Calculator ((v.1). Retrieved from https://www.aatbio.com/tools/IC50-calculator-v1, accessed on: 2024, May 6).

Experiment [1] has as its system human dermal fibroblasts (HDF). As to the kind of experiment: WST-1 assay on non-tumor cells (selectivity). It is filed as cell-based. The source says: (§1) The A375 malignant melanoma cell line (ECACC 88113005, Salisbury, UK) was procured from the European Collection of Authenticated Cell Cultures (ECACC). The primary culture of human dermal fibroblasts (HDF) was derived from skin according to the protocol approved by the Ethical Committee of Pomeranian Medical University in Szczecin (KB-0012/02/18). The detailed protocol of fibroblast isolation, authentication, and cell culture conditions was previously described. Both cell lines were cultivated in a humidified incubator under conditions of 5% CO2 and a temperature of 37°C, using Dulbecco’s modified Eagle’s medium (DMEM) with 4500 mg/L glucose (Sigma-Aldrich Merck Group, St. Louis, MO, USA) enriched with 10% heat-inactivated fetal bovine serum (FBS, EURx, Gdańsk, Poland), 2 mM L-glutamine (Sigma-Aldrich Merck Group, St. Louis, MO, USA), and penicillin-streptomycin solution (Sigma-Aldrich Merck Group, St. Louis, MO, USA). Regular assessments for the presence of mycoplasma were conducted using the MycoAlert® Mycoplasma Detection Kit (Lonza, Rockland, ME, USA).
(§2) The evaluation of the antiproliferative activity of the compounds was performed using the Cell Proliferation Reagent WST-1 assay (Roche, Germany). This assay relies on the reduction of tetrazolium salt to formazan, with the final amount of formazan proportional to the number of viable cells. In our study, A375 cells (2×10^3) and HDF (3×10^3) were initially seeded into 96-well plates and cultured in a humidified atmosphere of 5% CO2 at 37°C. 24 hours later, the culture medium was replaced with a medium containing the tested compounds for a 48-hour incubation period at specified final concentrations. […] For control purposes, cells without the tested compounds, which contained only the vehicle (DMSO), were used. Additionally, a blank sample consisting of tested compounds in a medium (without cells) was included. After the 48-hour incubation period, the WST-1 reagent was introduced and allowed to incubate with the cells for 30 minutes. The absorbance was subsequently measured at 450 nm with background correction at 620 nm using a microplate reader (Infinite 200 Pro, Tecan, Männedorf, Switzerland). Cell viability was calculated according to the following formula: [(Atest–Ablank)/ (Acontrol − Ablank)] × 100%. These measurements were conducted in triplicate for at least three independent experiments.
For that purpose, non-tumor HDF cells were used and the concentrations of tested compounds were increased to 200 µM (0.4% DMSO) and 500 µM (1% DMSO). Appropriate controls were prepared for higher concentrations of DMSO.

Another experiment has as its system melanoma A375 cells. As to the kind of experiment: WST-1 antiproliferative assay. Conditions: Homo sapiens, A-375. The format is cell-based.
From the text: as §1, §2
In the screening step, 10 µM solutions of all 33 compounds were tested on A375 cells. […] Selected compounds (2c, 18e, 16b, 29) were tested at concentrations of 0.1, 1, 10, 50, and 100 µM. The IC50 values were determined using an online calculator (AAT Bioquest, Inc., Quest Graph™ IC50 Calculator (v.1). Retrieved from https://www.aatbio.com/tools/IC50-calculator-v1, accessed on: 2022, December 12).

In a further experiment the test system is A375 cells. As to the kind of experiment: Live-cell imaging (time-lapse microscopy). The format is cell-based. Particulars: 48 h. The procedure:
For live-cell imaging, A375 cells were seeded into 96-well plates at a density of 2×10^3 cells per well and allowed to grow for 24 h before imaging. Next, the cell culture medium was carefully removed, and new medium containing 16b (at 2 µM and 10 µM) and 29 (at 5 µM and 10 µM) was added and the cell culture plate was placed in the imaging chamber of Agilent BioTek Lionheart FX automated microscope (Agilent Technologies, Inc., Santa Clara, CA, USA) equipped with a Plan Fluorite 20x/0.75 objective (Olympus, Nishi-Shinjuki, Tokyo, Japan), and a FLIR Blackfly BFLY-U3-23S6M camera (Teledyne FLIR, Wilsonville, OR, USA). The temperature in the imaging chamber was set to 37°C and CO2 level to 5%. The bright-field images were acquired every 5 minutes for 48 hours.

T1 sequence (P02554 whole entry): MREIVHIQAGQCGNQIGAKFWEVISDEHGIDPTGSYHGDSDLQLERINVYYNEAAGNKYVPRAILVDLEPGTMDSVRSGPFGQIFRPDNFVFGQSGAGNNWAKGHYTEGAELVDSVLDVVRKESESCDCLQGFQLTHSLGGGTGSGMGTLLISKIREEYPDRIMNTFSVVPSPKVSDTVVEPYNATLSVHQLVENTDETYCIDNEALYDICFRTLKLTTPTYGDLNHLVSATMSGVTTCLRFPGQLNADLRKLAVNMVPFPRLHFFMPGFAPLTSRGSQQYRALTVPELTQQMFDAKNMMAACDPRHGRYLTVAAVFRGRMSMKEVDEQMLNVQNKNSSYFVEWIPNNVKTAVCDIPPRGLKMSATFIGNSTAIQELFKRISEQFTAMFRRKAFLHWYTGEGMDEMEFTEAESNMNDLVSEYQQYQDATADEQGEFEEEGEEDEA
T1 sequence (P02550 whole entry): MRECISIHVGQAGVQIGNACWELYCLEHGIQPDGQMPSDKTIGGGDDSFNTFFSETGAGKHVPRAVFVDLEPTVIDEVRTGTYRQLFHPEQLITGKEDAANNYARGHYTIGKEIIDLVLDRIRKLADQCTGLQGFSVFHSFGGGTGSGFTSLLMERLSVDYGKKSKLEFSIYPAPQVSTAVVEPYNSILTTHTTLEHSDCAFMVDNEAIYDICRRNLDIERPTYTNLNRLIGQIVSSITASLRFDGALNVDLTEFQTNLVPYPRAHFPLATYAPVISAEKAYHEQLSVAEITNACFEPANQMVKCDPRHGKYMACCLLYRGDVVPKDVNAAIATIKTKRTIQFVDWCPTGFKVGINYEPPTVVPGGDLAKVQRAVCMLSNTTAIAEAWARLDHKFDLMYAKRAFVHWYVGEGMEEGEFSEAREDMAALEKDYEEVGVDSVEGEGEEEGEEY

Consider `COc1cc(Cn2cc(-c3cccs3)ccc2=S)cc(OC)c1OC` [Compound 16b], for which the “effect on tubulin polymerization” value at tubulin (100 µM) is “acted as tubulin polymerization inhibitors”. The IC50 at tubulin (Vmax normalised to control, read-out: tubulin polymerization inhibition IC50) was found to be 37.3 ± 10.9 µM; in experiment [1] (Fibroblast, 48 hours of treatment, normal human dermal fibroblasts) it was 120 ± 8.42 µM; in the experiment with melanoma A375 cells (48 hours of treatment), 1.85 ± 0.44 µM. In addition, the “Selectivity index (SI)” value in experiment [1] (IC50 normal cells (HDF)/IC50 cancer cell (A375)) amounted to 65.08. In the experiment with melanoma A375 cells (10 µM, 48 h of treatment, A375, read-out: Cell proliferation (% control)), the activity at 10 µM worked out at 42.8 ± 22.9%. The “time-lapse observation of A375 cells” value in the experiment on A375 cells (2 µM) is “cells also divided, but less effectively, divisions lasted longer, and finally, the confluence was lower than that in the control well”; with A375 cells (10 µM), “arrested mitosis resulted in mitotic slippage, leading to apoptosis or formation of binucleated cells”.
